pIC50: −log10 of the molar value.

From patent publication US20230026611A1, “ARYL HETEROCYCLIC COMPOUNDS AS Kv1.3 POTASSIUM SHAKER CHANNEL BLOCKERS” (D. E. Shaw Research, LLC, priority 2019, published 2023) come the findings set out here.

In test [1] the target is hERG channel (Homo sapiens, UniProt Q12809). In words: hERG electrophysiology, automated whole-cell patch clamp (Patchliner) in CHO-K1 cells stably expressing hERG.
Procedure: Evaluation of hERG Activities
This assay is used to evaluate the disclosed compounds's inhibition activities against the hERG channel.
CHO-K1 cells stably expressing hERG were grown in Ham's F-12 Medium with glutamine containing 10% heat-inactivated FBS, 1% penicillin/streptomycin, hygromycin (100 μg/ml) and G418 (100 μg/ml). Cells were grown in culture flasks at 37° C. in a 5% CO2-humidified incubator.
The cells were bathed in an extracellular solution containing 140 mM NaCl, 4 mM KCl, 2 mM CaCl2), 1 mM MgCl2, 5 mM Glucose, 10 mM HEPES; pH adjusted to 7.4 with NaOH; 295-305 mOsm. The internal solution contained 50 mM KCl, 10 mM NaCl, 60 mM KF, 20 mM EGTA, 10 mM HEPES; pH adjusted to 7.2 with KOH; 285 mOsm. All compounds were dissolved in DMSO at 30 mM. Compound stock solutions were freshly diluted with external solution to concentrations of 30 nM, 100 nM, 300 nM, 1 μM, 3 μM, 10 μM, 30 μM and 100 μM. The highest content of DMSO (0.3%) was present in 100 μM.
The voltage protocol (see Table B) was designed to simulate voltage changes during a cardiac action potential with a 300 ms depolarization to +20 mV (analogous to the plateau phase of the cardiac action potential), a repolarization for 300 ms to −50 mV (inducing a tail current) and a final step to the holding potential of −80 mV. The pulse frequency was 0.3 Hz. Control (compound-free) and compound pulse trains for each compound concentration applied contained 70 pulses.
Whole-cell current recordings and compound application were enabled by means of an automated patch clamp platform Patchliner (Nanion). EPC 10 patch clamp amplifier (HEKA) along with Patchmaster software (HEKA Elektronik Dr. Schulze GmbH) was used for data acquisition. Data were sampled at 10 kHz without filtering. Increasing compound concentrations were applied consecutively to the same cell without washouts in between.
AUC and PEAK values were obtained with Patchmaster (HEKA Elektronik Dr. Schulze GmbH). To determine IC50 the last single pulse in the pulse train corresponding to a given compound concentration was used. Obtained AUC and PEAK values in the presence of compound were normalized to control values in the absence of compound. Using Origin (OridinLab), IC50 was derived from data fit to Hill equation: Icompound/control=(100−A)/(1+([compound]/IC50)nH)+A, where IC50 is the concentration at which current inhibition is half-maximal, [compound] is the applied compound concentration, A is the fraction of current that is not blocked and nH is the Hill coefficient.
In test [2] the target is T1, Kv1.3 potassium channel (Homo sapiens, UniProt P22001).
T1 construct: expressed in transfected cells
In words: Kv1.3 potassium channel blocker activity, automated whole-cell patch clamp (Patchliner) in CHO-K1 cells stably expressing Kv1.3. The settings on record: CHO-K1 cells stably expressing Kv1.3; patch clamp, current inhibition; read-out: Kv1.3 IC50. It is filed as cell-based. How it is done: Example 82. Evaluation of Kv1.3 potassium channel blocker activities
This assay is used to evaluate the disclosed compounds' activities as Kv1.3 potassium channel blockers.
CHO-K1 cells stably expressing Kv1.3 were grown in DMEM containing 10% heat-inactivated FBS, 1 mM sodium pyruvate, 2 mM L-glutamine, and G418 (500 μg/ml).
All compounds were dissolved in DMSO at 30 mM.
The currents were evoked by applying 100 ms depolarizing pulses from −90 mV (holding potential) to +40 mV were applied with 0.1 Hz frequency. […] 10-second breaks were used between pulse trains (see Table A below).
Data were sampled at 10 kHz without filtering. Passive leak currents were subtracted online using a P/4 procedure (HEKA Elektronik Dr. Schulze GmbH). […] Total compound incubation time before the next pulse train was not longer than 10 seconds. Peak current inhibition was observed during compound equilibration.

T1 sequence (P22001 whole entry): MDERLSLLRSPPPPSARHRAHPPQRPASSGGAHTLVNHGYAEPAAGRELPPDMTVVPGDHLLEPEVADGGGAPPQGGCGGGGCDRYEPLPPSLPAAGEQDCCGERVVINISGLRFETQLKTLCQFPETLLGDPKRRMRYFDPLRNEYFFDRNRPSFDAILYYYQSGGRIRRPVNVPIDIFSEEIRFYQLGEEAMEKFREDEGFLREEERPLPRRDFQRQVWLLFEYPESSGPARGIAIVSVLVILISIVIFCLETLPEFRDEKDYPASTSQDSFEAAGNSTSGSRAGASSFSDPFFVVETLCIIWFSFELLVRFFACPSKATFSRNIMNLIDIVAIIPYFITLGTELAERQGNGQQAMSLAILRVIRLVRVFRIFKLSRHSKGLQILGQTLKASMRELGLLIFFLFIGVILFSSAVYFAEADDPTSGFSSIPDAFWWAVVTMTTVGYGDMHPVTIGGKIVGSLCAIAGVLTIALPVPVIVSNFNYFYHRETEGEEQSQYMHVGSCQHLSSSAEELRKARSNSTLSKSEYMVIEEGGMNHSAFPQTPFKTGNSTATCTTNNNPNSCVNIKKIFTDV
Sequence of hERG channel (Q12809 whole entry): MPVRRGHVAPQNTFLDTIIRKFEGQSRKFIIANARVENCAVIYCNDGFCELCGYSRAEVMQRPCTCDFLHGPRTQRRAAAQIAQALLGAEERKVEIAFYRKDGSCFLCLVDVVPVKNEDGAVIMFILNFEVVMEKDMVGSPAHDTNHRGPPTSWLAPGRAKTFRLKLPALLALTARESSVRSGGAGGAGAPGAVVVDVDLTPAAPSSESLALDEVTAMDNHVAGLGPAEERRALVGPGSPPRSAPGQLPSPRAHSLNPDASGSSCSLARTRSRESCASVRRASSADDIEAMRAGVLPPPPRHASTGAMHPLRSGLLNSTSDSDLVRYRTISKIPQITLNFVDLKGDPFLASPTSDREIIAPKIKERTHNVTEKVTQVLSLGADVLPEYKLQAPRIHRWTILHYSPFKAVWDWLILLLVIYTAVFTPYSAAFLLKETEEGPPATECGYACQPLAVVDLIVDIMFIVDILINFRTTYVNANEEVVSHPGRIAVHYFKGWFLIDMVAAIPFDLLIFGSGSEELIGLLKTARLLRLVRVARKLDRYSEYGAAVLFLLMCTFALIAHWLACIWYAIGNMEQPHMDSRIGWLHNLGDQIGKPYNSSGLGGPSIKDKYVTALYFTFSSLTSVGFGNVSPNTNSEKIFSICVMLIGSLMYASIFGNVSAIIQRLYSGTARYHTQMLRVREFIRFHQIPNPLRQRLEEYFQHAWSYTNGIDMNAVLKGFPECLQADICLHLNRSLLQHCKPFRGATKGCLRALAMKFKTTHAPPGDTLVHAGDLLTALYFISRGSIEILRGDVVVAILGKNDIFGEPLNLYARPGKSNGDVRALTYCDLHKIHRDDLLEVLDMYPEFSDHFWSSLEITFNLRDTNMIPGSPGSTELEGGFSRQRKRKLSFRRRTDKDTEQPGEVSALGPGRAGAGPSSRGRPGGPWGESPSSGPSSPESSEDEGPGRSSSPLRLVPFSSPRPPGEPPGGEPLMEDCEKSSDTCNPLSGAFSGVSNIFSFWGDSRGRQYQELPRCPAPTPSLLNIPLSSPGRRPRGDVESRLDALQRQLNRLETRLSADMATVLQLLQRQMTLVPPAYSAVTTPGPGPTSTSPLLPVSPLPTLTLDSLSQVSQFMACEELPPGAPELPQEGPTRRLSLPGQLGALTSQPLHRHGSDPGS

For orientation: pIC50 means −log10 of the IC50, conventionally taken in molar units. With `O=C(NC1CNC1)C1CCC(c2c(O)ccc(Cl)c2Cl)NC1` (centres unmarked) [Compound 125, N-(azetidin-3-yl)-6-(2,3-dichloro-6-hydroxyphenyl)piperidine-3-carboxamide], the pIC50 in test [1] was under 4.00; in test [2] it was over 5.00. Regarding `O=C(NCC1CC(c2c(O)ccc(Cl)c2Cl)CCN1)C1COC1` [Compound 104, (2R,4S)-rel-N-[[4-(2,3-dichloro-6-hydroxyphenyl)piperidin-2-yl]methyl]oxetane-3-carboxamide], the pIC50 in test [1] was under 4.52; in test [2], over 6.00. On to `CS(=O)(=O)NC[C@H]1C[C@@H](c2c(O)ccc(Cl)c2Cl)CCN1` (relative stereo) [Compound 110, (2R,4S)-rel-N-[[4-(2,3-dichloro-6-hydroxyphenyl)piperidin-2-yl]methyl]methanesulfonamide], for which the pIC50 in test [1] was under 4.52; in test [2], over 6.00. Turning to `Oc1cc(Cl)c(Cl)cc1C1CCCCNC1` (centres unmarked) [Compound 40, 2-(azepan-3-yl)-4,5-dichlorophenol], the pIC50 is over 4.52 in test [1] and over 5.00 in test [2]. For `NCC(=O)N1CCC(c2c(O)cc(Cl)c(Cl)c2Cl)CC1` [Compound 98, 2-amino-1-[4-(2,3,4-trichloro-6-hydroxyphenyl)piperidin-1-yl]ethan-1-one] the same measures were over 4.52 and over 6.00. `O=S1(=O)CCCN1CC1CC(c2c(O)ccc(Cl)c2Cl)CCN1` (centres unmarked) [Compound 112, 2-[[4-(2,3-dichloro-6-hydroxyphenyl)piperidin-2-yl]methyl]-1,2-thiazolidine-1,1-dione]: the pIC50 in test [1] is over 4.52; in test [2] it was over 6.00. Regarding `NC[C@H]1C[C@@H](c2c(O)ccc(Cl)c2Cl)CCN1` (relative stereo) [Compound 74, (2R,4S)-rel-2-(aminomethyl)piperidin-4-yl]-3,4-dichlorophenol], the pIC50 was under 4.52 in test [1] and over 6.00 in test [2]. For `CC(=O)NCC1CC(c2c(O)ccc(Cl)c2Cl)CCN1` (centres unmarked) [Compound 79, N-[[4-(2,3-dichloro-6-hydroxyphenyl)piperidin-2-yl]methyl]acetamide] the same measures were under 4.52 and over 6.00. The corresponding values for `O=C(NC1CNC1)C1CCCC(c2c(O)ccc(Cl)c2Cl)N1` (centres unmarked) [Compound 127, N-(azetidin-3-yl)-6-(2,3-dichloro-6-hydroxyphenyl)piperidine-2-carboxamide] are under 4.52 and over 5.00.

`NC1CCN(c2cc(Cl)c(Cl)cc2O)CC1` [Compound 8, 2-(4-aminopiperidin-1-yl)-4,5-dichlorophenol]: the pIC50 in test [1] is over 4.52; in test [2], over 6.00. For `CNC(=O)C[C@H]1C[C@@H](c2c(O)ccc(Cl)c2Cl)CCN1` (single isomer, unassigned) [Compound 30], the negative logarithm of the IC50 (pIC50) was under 4.52 in test [1] and over 6.00 in test [2]. Regarding `CN(C)C1CCN(c2cc(Cl)c(Cl)cc2O)CC1` [Compound 23, 4,5-dichloro-2-[4-(dimethylamino)piperidin-1-yl]phenol], the pIC50 in test [1] is over 4.52; in test [2] it was over 6.00. Turning to `Oc1ccc(Cl)c(Cl)c1C1CCNCC1` [Compound 55, 3,4-dichloro-2-(piperidin-4-yl)phenol], the pIC50 is over 4.52 in test [1] and over 6.00 in test [2].

As for `O=C(NC1CNC1)C1CCNC(c2c(O)ccc(Cl)c2Cl)C1` (centres unmarked) [Compound 126, N-(azetidin-3-yl)-2-(2,3-dichloro-6-hydroxyphenyl)piperidine-4-carboxamide], the results for the pIC50 in test [1] and in test [2] were under 4.52 and over 5.00, respectively. Turning to `Oc1cc(Cl)c(Cl)cc1C1CCNC1` (centres unmarked) [Compound 21, 4,5-dichloro-2-(pyrrolidin-3-yl)phenol], the pIC50 in test [1] is over 4.52; in test [2] it was over 6.00.

In the case of `NC(=O)C[C@H]1C[C@@H](c2c(O)ccc(Cl)c2Cl)CCN1` (relative stereo) [Compound 108, 2-[(2R,4S)-rel-4-(2,3-dichloro-6-hydroxyphenyl)piperidin-2-yl]acetamide], the pIC50 in test [1] is under 4.52; in test [2], over 6.00. In the case of `O=C(NCC1CC(c2c(O)ccc(Cl)c2Cl)CCN1)C1CC1` [Compound 106, (2R,4S)-rel-N-[[4-(2,3-dichloro-6-hydroxyphenyl)piperidin-2-yl]methyl]cyclopropane carboxamide], the pIC50 in test [1] is under 4.52; in test [2] it was over 6.00. The corresponding values for `NC(=O)[C@H]1C[C@@H](c2cc(Cl)c(Cl)cc2O)CCN1` (relative stereo) [Compound 85, (2R,4S)-rel-4-(4,5-dichloro-2-hydroxyphenyl)piperidine-2-carboxamide] are under 4.52 and over 6.00.

Turning to `Nc1nnc([C@@H]2C[C@H](c3c(O)ccc(Cl)c3Cl)CCN2)o1` (single isomer, unassigned) [Compound 105], the pIC50 in test [1] is under 4.52; in test [2], over 6.00. For `NC(=O)[C@@H]1C[C@H](c2c(O)cc(Cl)c(Cl)c2Cl)CCN1` (single isomer, unassigned) [Compound 63] the same measures were over 4.52 and over 6.00. Consider `OCC1CC(c2cc(Cl)c(Cl)cc2O)CCN1` (centres unmarked) [Compound 27, 4,5-dichloro-2-[2-(hydroxymethyl)piperidin-4-yl]phenol], for which the figures for the pIC50 in test [1] and in test [2] were under 4.52 and over 5.00, respectively. Consider `CS(=O)(=O)NCC1CC(c2c(O)ccc(Cl)c2Cl)CCN1` [Compound 100, (2R,4S)-rel-N-[[4-(2,3-dichloro-6-hydroxyphenyl)piperidin-2-yl]methyl]methanesulfonamide], for which the figures for the pIC50 in test [1] and in test [2] were under 4.52 and over 6.00, respectively. Consider `Oc1cc(Cl)cc(Cl)c1C1CCNCC1` [Compound 57, 3,5-dichloro-2-(piperidin-4-yl)phenol], for which the pIC50 was over 4.52 in test [1] and over 6.00 in test [2]. For `OCC1CC(c2cc(Cl)c(Cl)cc2O)CN1` (centres unmarked) [Compound 36, 4,5-dichloro-2-(5-(hydroxymethyl)pyrrolidin-3-yl)phenol] the same measures were over 4.52 and over 5.00. For `O=S(=O)(NCC1CC(c2c(O)ccc(Cl)c2Cl)CCN1)c1cccnc1` [Compound 6, N-(2R,4S)-rel-[[4-(2,3-dichloro-6-hydroxyphenyl)piperidin-2-yl]methyl]pyridine-3-sulfonamide], the pIC50 in test [1] is under 4.52; in test [2], over 6.00. `CC(=O)NC[C@@H]1CC(c2c(O)ccc(Cl)c2Cl)CCN1` (single isomer, unassigned) [Compound 89]: the pIC50 in test [1] was under 4.52; in test [2], over 6.00. For the compound `O=C(NC1CNC1)[C@H]1CC[C@H](c2c(O)ccc(Cl)c2Cl)N1` (single isomer, unassigned) [Compound 118], the pIC50 in test [1] is under 4.00; in test [2] it was over 6.00. The corresponding values for `Oc1cc(Cl)c(Cl)cc1C1CCCNC1` (centres unmarked) [Compound 16, 4,5-dichloro-2-(piperidin-3-yl)phenol] are over 4.52 and over 6.00. With `O=S(=O)(NC[C@H]1C[C@@H](c2c(O)ccc(Cl)c2Cl)CCN1)C1CC1` (relative stereo) [Compound 97, N-(2R,4S)-rel-[[4-(2,3-dichloro-6-hydroxyphenyl)piperidin-2-yl]methyl]cyclopropanesulfonamide], the pIC50 is under 4.52 in test [1] and over 6.00 in test [2]. As to `CN1CCC(c2cc(Cl)c(Cl)cc2O)CC1` [Compound 4, 4,5-dichloro-2-(1-methylpiperidin-4-yl)phenol], the values for the negative logarithm of the IC50 (pIC50) in test [1] and in test [2] were over 4.52 and over 6.00, respectively. For `NC(=O)C[C@@H]1C[C@H](c2c(O)ccc(Cl)c2Cl)CCN1` (single isomer, unassigned) [Compound 109], the pIC50 was under 4.52 in test [1] and over 6.00 in test [2]. Consider `CC(=O)N1CCC(c2cc(Cl)c(Cl)cc2O)CC1` [Compound 10, 1-[4-(4,5-dichloro-2-hydroxyphenyl)piperidin-1-yl]ethan-1-one], for which, in test [2], the pIC50 is over 5.00. As to `Oc1cc(Cl)c(Cl)cc1C1=CCCNC1` [Compound 19, 4,5-dichloro-2-(1,2,3,6-tetrahydropyridin-5-yl)phenol], in test [2], the pIC50 was over 5.00. As to `Oc1ccc(F)c(Cl)c1C1CCNCC1` [Compound 68, 3-chloro-4-fluoro-2-(piperidin-4-yl)phenol], the pIC50 in test [2] is over 5.00. Same read-out and setting: the value for `O=C(O)C1CC(c2c(O)ccc(Cl)c2Cl)CCN1` (centres unmarked) [Compound 84, 4-(2,3-dichloro-6-hydroxyphenyl)piperidine-2-carboxylic acid] was over 5.00. The same measure, in the same setting: the value for `Oc1cc(Cl)c(Cl)cc1C1(O)CCNCC1` (single isomer, unassigned) [Compound 59, 4-(4,5-dichloro-2-hydroxyphenyl)piperidin-4-ol] was over 5.00; that for `Oc1ccc(Br)c(Cl)c1C1CCNCC1` [Compound 81, 4-bromo-3-chloro-2-(piperidin-4-yl)phenol] was over 6.00. As to `OC[C@H]1C[C@@H](c2cc(Cl)c(Cl)cc2O)CCN1` (single isomer, unassigned) [Compound 34], the pIC50 in test [2] is over 5.00. On the same count and under the same terms, to `NC[C@@H]1CNCC[C@H]1c1cc(Cl)c(Cl)cc1O` (relative stereo) [Compound 48, (3R,4R)-rel-2-[3-(aminomethyl)piperidin-4-yl]-4,5-dichlorophenol] belongs over 5.00; to `Oc1cc(Cl)c(Cl)cc1C1=CCNC1` [Compound 20, 4,5-dichloro-2-(2,5-dihydro-1H-pyrrol-3-yl)phenol], over 5.00.
